Laboratory results reported in PubChem BioAssay AID256 (DTP/NCI, 2004).
Toxic doses and inconclusive results are not listed. How the source made its calls: active means survival T/C of 150% or more; inactive means T/C below 125% in these data.

Tested on: CD2F1 mice, L1210 leukemia ip, survival T/C
Experiment: NCI In Vivo Anticancer Drug Screen. Data for tumor model L1210 Leukemia (intraperitoneal) in CD2F1 (CDF1) mice
Conditions: endpoint: mean survival time, higher = longer survival
Procedure, shortened: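 Read-out first: treated-group measurement over vehicle-control measurement, expressed as a ratio. Animals bore a transplanted tumor line and were dosed with compound or vehicle.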

[1] = dose: 25.0 mg/kg/injection, schedule: Q04DX003 (ip), vehicle: saline
[2] = dose: 50.0 mg/kg/injection, schedule: Q04DX003 (ip), vehicle: saline
[3] = dose: 100.0 mg/kg/injection, schedule: Q04DX003 (ip), vehicle: saline
[4] = dose: 100.0 mg/kg/injection, schedule: Q01DX009 (ip), vehicle: saline with Tween-80
[5] = dose: 200.0 mg/kg/injection, schedule: Q01DX009 (ip), vehicle: saline with Tween-80
[6] = dose: 400.0 mg/kg/injection, schedule: Q01DX009 (ip), vehicle: saline with Tween-80
[7] = dose: 200.0 mg/kg/injection, schedule: Q04DX003 (ip), vehicle: saline
[8] = dose: 50.0 mg/kg/injection, schedule: Q01DX009 (ip), vehicle: saline with Tween-80
[9] = dose: 100.0 mg/kg/injection, schedule: Q04DX003 (ip), vehicle: saline with Tween-80
[10] = dose: 200.0 mg/kg/injection, schedule: Q04DX003 (ip), vehicle: saline with Tween-80
[11] = dose: 400.0 mg/kg/injection, schedule: Q04DX003 (ip), vehicle: saline with Tween-80
[12] = dose: 50.0 mg/kg/injection, schedule: Q01DX009 (ip), vehicle: saline
[13] = dose: 100.0 mg/kg/injection, schedule: Q01DX009 (ip), vehicle: saline
[14] = dose: 200.0 mg/kg/injection, schedule: Q01DX009 (ip), vehicle: saline
[15] = dose: 100.0 mg/kg/injection, schedule: Q01DX001 (ip), vehicle: saline with Tween-80
[16] = dose: 200.0 mg/kg/injection, schedule: Q01DX001 (ip), vehicle: saline with Tween-80
[17] = dose: 100.0 mg/kg/injection, schedule: Q04DX002 (ip), vehicle: saline with Tween-80
[18] = dose: 200.0 mg/kg/injection, schedule: Q04DX002 (ip), vehicle: saline with Tween-80
[19] = dose: 75.0 mg/kg/injection, schedule: Q01DX001 (ip), vehicle: saline
[20] = dose: 150.0 mg/kg/injection, schedule: Q01DX001 (ip), vehicle: saline
[21] = dose: 400.0 mg/kg/injection, schedule: Q01DX001 (ip), vehicle: saline with Tween-80

Measured: T/C

COc1cc(O)cc(OC)c1
inactive: [1] 103 % of control | [2] 102 % of control | [3] 100 % of control

Cc1cccc(C2=NCCN2)c1C
inactive: dose: 5.0 mg/kg/injection, schedule: Q01DX001 (ip), vehicle: saline with Tween-80 95 % of control | dose: 10.0 mg/kg/injection, schedule: Q01DX001 (ip), vehicle: saline with Tween-80 97 % of control | dose: 20.0 mg/kg/injection, schedule: Q01DX001 (ip), vehicle: saline with Tween-80 97 % of control

CCOC(=O)/C=C(\C)Sc1ccc(Cl)cc1
inactive: dose: 100.0 mg/kg/injection, schedule: Q04DX003 (ip), vehicle: alcohol 92 % of control | dose: 200.0 mg/kg/injection, schedule: Q04DX003 (ip), vehicle: alcohol 87 % of control | dose: 400.0 mg/kg/injection, schedule: Q04DX003 (ip), vehicle: alcohol 102 % of control

COc1cccc(C(=O)c2ccccc2NC(C)=O)c1
inactive: [4] 101 % of control | [5] 103 % of control | [6] 98 % of control

OC1COCOC1C1OCOCC1O (centres undefined)
inactive: [3] 95 % of control | [7] 95 % of control | dose: 400.0 mg/kg/injection, schedule: Q04DX003 (ip), vehicle: saline 97 % of control

CCOC(=O)C1(C#N)C(=O)CSC1=Nc1ccccc1Cl (centres undefined)
inactive: dose: 25.0 mg/kg/injection, schedule: Q01DX009 (ip), vehicle: saline with Tween-80 90 % of control | [8] 91 % of control | [4] 86 % of control | [6] 86 % of control

CC(COP(N)(=O)N(CCCl)CCCl)C(C)OCc1ccccc1 (centres undefined)
inactive: dose: 15.62 mg/kg/injection, schedule: Q01DX001 (ip), vehicle: DMSO 101 % of control | dose: 31.3 mg/kg/injection, schedule: Q01DX001 (ip), vehicle: DMSO 106 % of control | dose: 62.5 mg/kg/injection, schedule: Q01DX001 (ip), vehicle: DMSO 101 % of control | dose: 125.0 mg/kg/injection, schedule: Q01DX001 (ip), vehicle: DMSO 103 % of control | dose: 250.0 mg/kg/injection, schedule: Q01DX001 (ip), vehicle: DMSO 95 % of control | dose: 500.0 mg/kg/injection, schedule: Q01DX001 (ip), vehicle: DMSO 93 % of control

CC1(C)CC(=O)C2OC2(C)C1 (centres undefined)
inactive: [4] 100 % of control | [9] 95 % of control | [5] 97 % of control | [10] 103 % of control | [6] 96 % of control | [11] 97 % of control

CCn1c(=S)[nH]c(=O)c2n[nH]nc21
inactive: dose: 100.0 mg/kg/injection, schedule: Q01DX009 (ip), vehicle: acetone 100 % of control | dose: 200.0 mg/kg/injection, schedule: Q01DX009 (ip), vehicle: acetone 94 % of control

CN(C)CCCNCC#CCNCCCN(C)C
inactive: [12] 100 % of control | [13] 98 % of control | [3] 101 % of control | [14] 96 % of control | [7] 95 % of control

CC1CC(C)(C)N=C(C(Cc2ccccc2)Cc2ccccc2)O1 (centres undefined)
inactive: [15] 97 % of control | [16] 95 % of control

COC(=O)C(C(N)=O)C(=O)C1C(=O)N(c2ccccc2)N=C1C (centres undefined)
inactive: dose: 50.0 mg/kg/injection, schedule: Q04DX002 (ip), vehicle: saline with Tween-80 97 % of control | [17] 93 % of control | [18] 93 % of control

O=[N+]([O-])c1cccnc1Oc1cccc(C(F)(F)F)c1
inactive: [13] 95 % of control | [14] 96 % of control | dose: 400.0 mg/kg/injection, schedule: Q01DX009 (ip), vehicle: saline 91 % of control

O=C(CCC(=O)NO)NO
inactive: dose: 100.0 mg/kg/injection, schedule: Q04DX002 (ip), vehicle: saline 101 % of control | dose: 200.0 mg/kg/injection, schedule: Q04DX002 (ip), vehicle: saline 90 % of control

O=C1NC(=O)C(Cc2ccccc2)(Cc2ccccc2)C(=O)N1Cc1ccccc1
inactive: [8] 100 % of control | [4] 91 % of control | [5] 100 % of control

CCC[CH2][Sn]([CH2]CCC)([CH2]CCC)[CH2]CC(=O)OC
inactive: [9] 101 % of control | [10] 95 % of control

O=C(OCCCCI)c1ccccc1
inactive: [19] 97 % of control | [20] 102 % of control | dose: 300.0 mg/kg/injection, schedule: Q01DX001 (ip), vehicle: saline 97 % of control

O=C(O)/C=C/C(=O)Nc1ccc(I)cc1
inactive: [4] 95 % of control | [9] 104 % of control | [5] 111 % of control | [10] 98 % of control | [11] 97 % of control

S=c1[nH]c2ccccc2n1CCc1ccncc1
inactive: dose: 100.0 mg/kg/injection, schedule: Q#A X016 (ip), vehicle: saline 108 % of control | dose: 200.0 mg/kg/injection, schedule: Q#A X016 (ip), vehicle: saline 95 % of control | dose: 400.0 mg/kg/injection, schedule: Q## X016 (ip), vehicle: saline 102 % of control | dose: 400.0 mg/kg/injection, schedule: Q#A X016 (ip), vehicle: saline 98 % of control | dose: 800.0 mg/kg/injection, schedule: Q## X016 (ip), vehicle: saline 100 % of control | dose: 1600.0 mg/kg/injection, schedule: Q## X016 (ip), vehicle: saline 100 % of control

CCC(C)N(CCCOC(=O)c1ccc(N)cc1)C(C)CC (centres undefined)
inactive: dose: 12.5 mg/kg/injection, schedule: Q04DX003 (ip), vehicle: saline 103 % of control | [1] 107 % of control | [2] 103 % of control

CC(C)(C)C1CCC(OC(=O)C(=O)O)CC1 (centres undefined)
inactive: [15] 100 % of control | [4] 104 % of control | [16] 97 % of control | [5] 87 % of control | [21] 95 % of control

COc1ccc(/C=C2\Oc3cc(O)ccc3C2=O)cc1O
inactive: [15] 96 % of control | [16] 94 % of control | [21] 91 % of control

O=C(O)C(=O)O.O=C(O)C(=O)O.[Th]
inactive: dose: 200.0 mg/kg/injection, schedule: Q01DX001 (ip), vehicle: saline 95 % of control | dose: 400.0 mg/kg/injection, schedule: Q01DX001 (ip), vehicle: saline 97 % of control

O=C(NC1CC1(c1ccccc1)c1ccccc1)NC1CC1(c1ccccc1)c1ccccc1 (centres undefined)
inactive: dose: 9.35 mg/kg/injection, schedule: Q01DX001 (ip), vehicle: other 93 % of control | dose: 18.7 mg/kg/injection, schedule: Q01DX001 (ip), vehicle: other 91 % of control | dose: 37.5 mg/kg/injection, schedule: Q01DX001 (ip), vehicle: other 94 % of control

CCOC(OCC)/C(C)=N/[N+](C)(C)C
inactive: [19] 107 % of control | [20] 98 % of control

COC(=O)C[As+](c1ccccc1)(c1ccccc1)c1ccccc1
inactive: dose: 75.0 mg/kg/injection, schedule: Q01DX001 (ip), vehicle: other 97 % of control | [19] 103 % of control | dose: 150.0 mg/kg/injection, schedule: Q01DX001 (ip), vehicle: other 91 % of control | [20] 94 % of control

CC(=O)NC(C=O)CC(C=O)CO (centres undefined)
inactive: [12] 103 % of control | [2] 107 % of control | [13] 107 % of control | [3] 109 % of control | dose: 150.0 mg/kg/injection, schedule: Q04DX003 (ip), vehicle: saline 108 % of control | [14] 95 % of control

CC/C=C/C(C)OC(=N)C(Cl)(Cl)Cl (centres undefined)
inactive: [17] 103 % of control | [18] 100 % of control | dose: 400.0 mg/kg/injection, schedule: Q04DX002 (ip), vehicle: saline with Tween-80 97 % of control

Nc1nc2nc(CBr)c(CBr)nc2c(=O)[nH]1
inactive: [5] 101 % of control
